Starred links: 1 amine or outer side, 2 acyl side, 3 side chain; linkers in the order of their positions; H or OH if unused. Non-standard residues stand in square brackets, D forms with d. Residues, ends and D or L forms follow the SMILES beside them. *: point of attachment. dAla(cis-4-NHCOPyz-cHex) = N[C@H](C[C@H]1CC[C@@H](NC(=O)c2cnccn2)CC1)C(=O)O; X1 = O=C(N[C@H]1CC[C@@H](C[C@@H](N[*:1])C(=O)[*:2])CC1)c1ccccn1; X4 = O=C(N[C@H]1CC[C@@H](C[C@@H](N[*:1])C(=O)[*:2])CC1)c1cccnc1; X8 = O=C(N[C@H]1CC[C@@H](C[C@@H](N[*:1])C(=O)[*:2])CC1)c1ccncn1; X6 = O=C(N[C@H]1CC[C@H](C[C@@H](N[*:1])C(=O)[*:2])CC1)c1ccccn1; X7 = O=C(N[C@H]1CC[C@H](C[C@@H](N[*:1])C(=O)[*:2])CC1)c1cccnc1; dPhe(3,4-Cl2) = N[C@H](Cc1ccc(Cl)c(Cl)c1)C(=O)O; dPhe(4-Cl) = N[C@H](Cc1ccc(Cl)cc1)C(=O)O; d2Nal = N[C@H](Cc1ccc2ccccc2c1)C(=O)O; dLys(iPr) = CC(C)NCCCC[C@@H](N)C(=O)O; Lys(iPr) = CC(C)NCCCC[C@H](N)C(=O)O; Lys(Me2) = CN(C)CCCC[C@H](N)C(=O)O; Orn(iPr) = CC(C)NCCC[C@H](N)C(=O)O; aIle = CC[C@@H](C)[C@H](N)C(=O)O; d3Pal = N[C@H](Cc1cccnc1)C(=O)O; Cit = NC(=O)NCCC[C@H](N)C(=O)O; Nicotinoyl = O=C(c1cccnc1)*; Picolinoyl = O=C(c1ccccn1)*; Abu = CC[C@H](N)C(=O)O; Me2Gly = CN(C)CC(=O)*

The test system of the first data set is anaesthesized rats. In words: wheal test, intradermal injection. To be noted: 10 ug peptide intradermally. It is filed as in vivo, rat. The method, boiled down: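 Anaesthetized rats given intradermal injection of 10 ug peptide in 100 ul saline; area of the wheal calculated from its diameter.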
Take `CC(=O)N[C@H](Cc1ccc2ccccc2c1)C(=O)N[C@H](Cc1ccc(Cl)cc1)C(=O)N[C@H](Cc1cccnc1)C(=O)N[C@@H](CO)C(=O)N[C@@H](CCCCNC(=O)c1ccccn1)C(=O)N[C@H](C[C@H]1CC[C@H](NC(=O)c2ccccn2)CC1)C(=O)N[C@@H](CC(C)C)C(=O)N[C@@H](CCCCNC(C)C)C(=O)N1CCC[C@H]1C(=O)N[C@H](C)C(N)=O` [IV-3] (Ac-[d2Nal][dPhe(4-Cl)][d3Pal]SK(Picolinoyl)[X6]L[Lys(iPr)]P[dA]-NH2): the “Wheal Area” value is on record as 101.0 ± 3.0 mm^2 /10 μg.

On to `CC[C@H](NC(=O)[C@@H](CCCCNC(=O)c1ccccn1)NC(=O)[C@H](CCCNC(N)=O)NC(=O)[C@H](CO)NC(=O)[C@@H](Cc1cccnc1)NC(=O)[C@@H](Cc1ccc(Cl)cc1)NC(=O)[C@@H](Cc1ccc2ccccc2c1)NC(C)=O)C(=O)N[C@@H](CCCCNC(C)C)C(=O)N1CCC[C@H]1C(=O)N[C@H](C)C(N)=O` [compound 26382] (Ac-[d2Nal][dPhe(4-Cl)][d3Pal]S[Cit][dK](Picolinoyl)[Abu][Lys(iPr)]P[dA]-NH2), for which the “Wheal Area” value was 89.5 ± 5.5 mm^2 /10 μg.

Take `CC(=O)N[C@H](Cc1ccc2ccccc2c1)C(=O)N[C@H](Cc1ccc(Cl)cc1)C(=O)N[C@H](Cc1cccnc1)C(=O)N[C@@H](CO)C(=O)N[C@@H](CCCCNC(=O)c1cccnc1)C(=O)N[C@H](C[C@H]1CC[C@@H](NC(=O)c2cccnc2)CC1)C(=O)N[C@@H](CC(C)C)C(=O)N[C@@H](CCCCNC(C)C)C(=O)N1CCC[C@H]1C(=O)N[C@H](C)C(N)=O` [IBR 25648] (Ac-[d2Nal][dPhe(4-Cl)][d3Pal]SK(Nicotinoyl)[X4]L[Lys(iPr)]P[dA]-NH2): the “Wheal Area” value was determined as 101.8 ± 4.3 mm^2 /10 μg.

With `CC[C@@H](C)[C@H](NC(=O)[C@@H](CCCCNC(=O)c1ccccn1)NC(=O)[C@H](CCCCNC(=O)c1ccccn1)NC(=O)[C@H](CO)NC(=O)[C@@H](Cc1cccnc1)NC(=O)[C@@H](Cc1ccc(Cl)cc1)NC(=O)[C@@H](Cc1ccc2ccccc2c1)NC(C)=O)C(=O)N[C@@H](CCCNC(C)C)C(=O)N1CCC[C@H]1C(=O)N[C@H](C)C(N)=O` [compound 26178] (Ac-[d2Nal][dPhe(4-Cl)][d3Pal]SK(Picolinoyl)[dK](Picolinoyl)[aIle][Orn(iPr)]P[dA]-NH2), the “Wheal Area” value is 78.6 ± 4.5 mm^2 /10 μg.

`CC(=O)N[C@H](Cc1ccc(Cl)c(Cl)c1)C(=O)N[C@H](Cc1ccc(Cl)cc1)C(=O)N[C@H](Cc1cccnc1)C(=O)N[C@@H](CO)C(=O)N[C@@H](CCCCNC(=O)c1ccccn1)C(=O)N[C@H](CCCCNC(=O)c1ccccn1)C(=O)N[C@@H](CC(C)C)C(=O)N[C@@H](CCCCNC(C)C)C(=O)N1CCC[C@H]1C(=O)N[C@H](C)C(N)=O` [compound 26100] (Ac-[dPhe(3,4-Cl2)][dPhe(4-Cl)][d3Pal]SK(Picolinoyl)[dK](Picolinoyl)L[Lys(iPr)]P[dA]-NH2): the “Wheal Area” value is 116.2 ± 3.7 mm^2 /10 μg.

Turning to `CC(=O)N[C@H](Cc1ccc2ccccc2c1)C(=O)N[C@H](Cc1ccc(Cl)cc1)C(=O)N[C@H](Cc1cccnc1)C(=O)N[C@@H](CO)C(=O)N[C@@H](CCCCNC(=O)c1ccccn1)C(=O)N[C@H](C[C@H]1CC[C@@H](NC(=O)c2ccncn2)CC1)C(=O)N[C@@H](CC(C)C)C(=O)N[C@@H](CCCCNC(C)C)C(=O)N1CCC[C@H]1C(=O)N[C@H](C)C(N)=O` [compound 26323] (Ac-[d2Nal][dPhe(4-Cl)][d3Pal]SK(Picolinoyl)[X8]L[Lys(iPr)]P[dA]-NH2), the “Wheal Area” value amounted to 120.4 ± 4.7 mm^2 /10 μg.

Regarding `CC(=O)N[C@H](Cc1ccc2ccccc2c1)C(=O)N[C@H](Cc1cccnc1)C(=O)N[C@H](Cc1ccc(Cl)cc1)C(=O)N[C@@H](CO)C(=O)N[C@@H](CCCCNC(=O)c1ccccn1)C(=O)N[C@H](CCCCNC(=O)c1ccccn1)C(=O)N[C@@H](CC(C)C)C(=O)N[C@@H](CCCNC(C)C)C(=O)N1CCC[C@H]1C(=O)N[C@H](C)C(N)=O` [compound 26364] (Ac-[d2Nal][d3Pal][dPhe(4-Cl)]SK(Picolinoyl)[dK](Picolinoyl)L[Orn(iPr)]P[dA]-NH2), the “Wheal Area” value is 116.2 ± 5.5 mm^2 /10 μg.

`CC(=O)N[C@H](Cc1ccc2ccccc2c1)C(=O)N[C@H](Cc1ccc(Cl)cc1)C(=O)N[C@H](Cc1cccnc1)C(=O)N[C@@H](CO)C(=O)N[C@@H](CCCCNC(=O)c1ccccn1)C(=O)N[C@H](C[C@H]1CC[C@@H](NC(=O)c2cnccn2)CC1)C(=O)N[C@@H](CC(C)C)C(=O)N[C@@H](CCCNC(=N)N)C(=O)N1CCC[C@H]1C(=O)N[C@H](C)C(N)=O` [compound 26347] (Ac-[d2Nal][dPhe(4-Cl)][d3Pal]SK(Picolinoyl)[dAla(cis-4-NHCOPyz-cHex)]LRP[dA]-NH2): the “Wheal Area” value is reported as 119.6 ± 8.5 mm^2 /10 μg.

For `CC(=O)N[C@H](Cc1ccc2ccccc2c1)C(=O)N[C@H](Cc1ccc(Cl)cc1)C(=O)N[C@H](Cc1cccnc1)C(=O)N[C@@H](CO)C(=O)N[C@@H](CCCCNC(=O)c1ccccn1)C(=O)N[C@H](C[C@H]1CC[C@@H](NC(=O)c2ccccn2)CC1)C(=O)N[C@@H](CC(C)C)C(=O)N[C@@H](CCCCNC(C)C)C(=O)N1CCC[C@H]1C(=O)N[C@H](C)C(N)=O` [IV-4] (Ac-[d2Nal][dPhe(4-Cl)][d3Pal]SK(Picolinoyl)[X1]L[Lys(iPr)]P[dA]-NH2), the “Wheal Area” value stood at 123.0 ± 5.0 mm^2 /10 μg.

The data set is the same for the next values; noted with them: Table I; 10 ug peptide intradermally.
Regarding `CC(=O)N[C@H](Cc1ccc2ccccc2c1)C(=O)N[C@H](Cc1ccc(Cl)cc1)C(=O)N[C@H](Cc1cccnc1)C(=O)N[C@@H](CO)C(=O)N[C@@H](CCCCNC(=O)c1cccnc1)C(=O)N[C@H](CCCCNC(=O)c1cccnc1)C(=O)N[C@@H](CC(C)C)C(=O)N[C@@H](CCCCNC(=O)c1cccnc1)C(=O)N1CCC[C@H]1C(=O)N[C@H](C)C(N)=O` [compound 24596] (Ac-[d2Nal][dPhe(4-Cl)][d3Pal]SK(Nicotinoyl)[dK](Nicotinoyl)LK(Nicotinoyl)P[dA]-NH2), the Wheal stood at 122.8 ± 5.7 mm^2 /10.

The compound `CC(=O)N[C@H](Cc1ccc2ccccc2c1)C(=O)N[C@H](Cc1ccc(Cl)cc1)C(=O)N[C@H](Cc1cccnc1)C(=O)N[C@@H](CO)C(=O)N[C@@H](CCCCNC(=O)c1cccnc1)C(=O)N[C@H](CCCCNC(=O)c1cccnc1)C(=O)N[C@@H](CC(C)C)C(=O)N[C@@H](CCCNC(C)C)C(=O)N1CCC[C@H]1C(=O)N[C@H](C)C(N)=O` [compound 24933] (Ac-[d2Nal][dPhe(4-Cl)][d3Pal]SK(Nicotinoyl)[dK](Nicotinoyl)L[Orn(iPr)]P[dA]-NH2) displayed a Wheal of 136.0 mm^2 /10.

`CC(=O)N[C@H](Cc1ccc2ccccc2c1)C(=O)N[C@H](Cc1ccc(Cl)cc1)C(=O)N[C@H](Cc1cccnc1)C(=O)N[C@@H](CO)C(=O)N[C@@H](Cc1ccc(O)cc1)C(=O)N[C@H](CCCCNC(C)C)C(=O)N[C@@H](CC(C)C)C(=O)N[C@@H](CCCCNC(=O)c1cccnc1)C(=O)N1CCC[C@H]1C(=O)N[C@H](C)C(N)=O` [compound 24824] (Ac-[d2Nal][dPhe(4-Cl)][d3Pal]SY[dLys(iPr)]LK(Nicotinoyl)P[dA]-NH2) gave a Wheal of 122.8 ± 5.8 mm^2 /10.

For `CC(=O)N[C@H](Cc1ccc2ccccc2c1)C(=O)N[C@H](Cc1ccc(Cl)cc1)C(=O)N[C@H](Cc1cccnc1)C(=O)N[C@@H](CO)C(=O)N[C@@H](CCCNC(=N)N)C(=O)N[C@H](Cc1cccnc1)C(=O)N[C@@H](CC(C)C)C(=O)N[C@@H](CCCCNC(=O)c1cccnc1)C(=O)N1CCC[C@H]1C(=O)N[C@H](C)C(N)=O` [compound 24771] (Ac-[d2Nal][dPhe(4-Cl)][d3Pal]SR[d3Pal]LK(Nicotinoyl)P[dA]-NH2), the Wheal was 99.0 ± 10.3 mm^2 /10.

Take `CC(=O)N[C@H](Cc1ccc2ccccc2c1)C(=O)N[C@H](Cc1ccc(Cl)cc1)C(=O)N[C@H](Cc1cccnc1)C(=O)N[C@@H](CO)C(=O)N[C@@H](CCCCNC(=O)CN(C)C)C(=O)N[C@H](CCCCNC(=O)c1cccnc1)C(=O)N[C@@H](CC(C)C)C(=O)N[C@@H](CCCCNC(C)C)C(=O)N1CCC[C@H]1C(=O)N[C@H](C)C(N)=O` [compound 25509] (Ac-[d2Nal][dPhe(4-Cl)][d3Pal]SK(Me2Gly)[dK](Nicotinoyl)L[Lys(iPr)]P[dA]-NH2): the Wheal is on record as 110 ± 3 mm^2 /10.

Take `CC(=O)N[C@H](Cc1ccc2ccccc2c1)C(=O)N[C@H](Cc1ccc(Cl)cc1)C(=O)N[C@H](Cc1cccnc1)C(=O)N[C@@H](CO)C(=O)N[C@@H](CCCCNC(=O)c1cccnc1)C(=O)N[C@H](Cc1c[nH]cn1)C(=O)N[C@@H](CC(C)C)C(=O)N[C@@H](CCCNC(=N)N)C(=O)N1CCC[C@H]1C(=O)N[C@H](C)C(N)=O` [compound 24544] (Ac-[d2Nal][dPhe(4-Cl)][d3Pal]SK(Nicotinoyl)[dH]LRP[dA]-NH2): the Wheal was found to be 146.7 ± 3.6 mm^2 /10.

For `CC(=O)N[C@H](Cc1ccc2ccccc2c1)C(=O)N[C@H](Cc1ccc(Cl)cc1)C(=O)N[C@H](Cc1cccnc1)C(=O)N[C@@H](CO)C(=O)N[C@@H](Cc1ccc(O)cc1)C(=O)N[C@H](CCCCNC(=O)c1cccnc1)C(=O)N[C@@H](CC(C)C)C(=O)N[C@@H](CCCCN(C)C)C(=O)N1CCC[C@H]1C(=O)N[C@H](C)C(N)=O` [compound 24443] (Ac-[d2Nal][dPhe(4-Cl)][d3Pal]SY[dK](Nicotinoyl)L[Lys(Me2)]P[dA]-NH2), the Wheal amounted to 122.7 mm^2 /10.

`CC(=O)N[C@H](Cc1ccc2ccccc2c1)C(=O)N[C@H](Cc1ccc(Cl)cc1)C(=O)N[C@H](Cc1cccnc1)C(=O)N[C@@H](CO)C(=O)N[C@@H](Cc1ccc(O)cc1)C(=O)N[C@H](CCCCNC(=O)c1cccnc1)C(=O)N[C@@H](CC(C)C)C(=O)N[C@@H](CCCNC(C)C)C(=O)N1CCC[C@H]1C(=O)N[C@H](C)C(N)=O` [compound 24756] (Ac-[d2Nal][dPhe(4-Cl)][d3Pal]SY[dK](Nicotinoyl)L[Orn(iPr)]P[dA]-NH2) returned a Wheal of 92.2 ± 2.9 mm^2 /10.

On to `CC(=O)N[C@H](Cc1ccc2ccccc2c1)C(=O)N[C@H](Cc1ccc(Cl)cc1)C(=O)N[C@H](Cc1cccnc1)C(=O)N[C@@H](CO)C(=O)N[C@@H](CCCCNC(=O)c1cccnc1)C(=O)N[C@H](C[C@H]1CC[C@H](NC(=O)c2cccnc2)CC1)C(=O)N[C@@H](CC(C)C)C(=O)N[C@@H](CCCCNC(C)C)C(=O)N1CCC[C@H]1C(=O)N[C@H](C)C(N)=O` [compound 25647] (Ac-[d2Nal][dPhe(4-Cl)][d3Pal]SK(Nicotinoyl)[X7]L[Lys(iPr)]P[dA]-NH2), for which the Wheal was 119.5 ± 3.2 mm^2 /10.

Source of the values: US5763404A, “Methods for using LHRH antagonists with low histamine release” (priority 1995, dated 1998).
